Legend:
S. aureus [1] = assay: Color change of Reichardt's dye-treated elastomeric gloves on contact with S. aureus; details: natural rubber latex glove; 160 mg dye/10 mL acetonitrile; 10^7 CFU/mL S. aureus
Source text: Specifically, a solution of Reichardt's dye (160 milligrams per 10 milliliters of acetonitrile) was brushed onto a piece of a natural rubber latex glove (commercially available from Kimberly-Clark Corp.). A 100-microliter drop of 10^7 CFU/mL S. aureus was then applied to the surface of the glove and gently spread using a disposable pipette. Thereafter, a finger of a second natural rubber latex glove (commercially available from Kimberly-Clark Corp.) was dipped into a solution of Reichardt's dye (160 milligrams per 10 milliliters of acetonitrile). After drying, the fingers of the second glove were used to spread bacteria from the S. aureus droplet placed onto the piece of latex glove to another area on the latex piece.

[2] = tested on: juice from the aged chicken (high bacterial levels); assay: Isopropanol dye spray on doorknob marked with aged chicken juice; details: 160 mg dye in 10 mL isopropanol, sprayed
Source text: Plastic doorknobs were utilized as a “real world” surface on which to test bacterial contamination. A raw chicken leg was initially aged at room temperature for several days to ensure high bacterial levels (referred to hereinafter as “aged chicken”). Juice from the aged chicken was then used to mark the surface of one of the knobs. The other door knob was left uncontaminated as a control. Both knobs were wiped. […] The isopropanol solution of the dye was sprayed on both surfaces.

S. aureus [3] = assay: Titration of serially diluted S. aureus suspensions on paper towel with dye
Source text: 100 microliters of serially diluted S. aureus bacterial suspensions were placed onto a SCOTT® paper towel. Drops (10 microliters) of the Reichardt's dye in acetonitrile solution (40 milligrams/10 milliliters) were then pipetted onto each spot where the bacteria was placed. The dye solution changed color in less than 1 second. […] This was repeated on each spot corresponding to where different concentrations of bacteria were placed.

[4] = tested on: aged, pooled female urine; assay: Bacterial quantification of aged pooled female urine by dye titration; details: 100 microliters urine
Source text: Table 2 presents the volume of each dye solution required for the dye color to remain steady.

E. coli [5] = assay: Titration of microorganisms with Reichardt's dye on cellulosic towel; parameters: species or system Escherichia coli; details: Gram(-), 10^7 CFU/mL, 100 microliters
[6] = tested on: aged chicken juice (bacteria); assay: Dye spray on hot plate: aged chicken juice versus canned chicken broth; details: 160 mg/10 mL isopropanol spray
Source text: Canned chicken broth was utilized as a control that would contain chicken derived products such as lipids, protein, etc., to check for potential interferences from these naturally occurring materials. Freshly opened Swanson® Chicken Broth was pipette onto a hot plate surface and wiped dry with a SCOTT® towel. Juice from raw chicken that had been stored at room temperature for several days was also pipetted onto the hot plate and wiped dry as a positive control. […] Thus, in the case of chicken, the presence of microbes was clearly responsible for triggering the change in color, and not some other component, such as chicken fat or proteins.

[7] = tested on: aged chicken juice known to have a high bacterial count; assay: Dye coating with or without TWEEN 80 on ceramic surface exposed to aged chicken juice; details: coating with TWEEN 80 surfactant; 80 mg/10 mL acetonitrile
Source text: This solution was then used to coat a ceramic surface and allowed to air dry. […] After drying, a drop of aged chicken juice known to have a high bacterial count was placed on the each coating area. […] Furthermore, the addition of TWEEN® surfactant allowed for easy removal of the dye from the surface.

E. coli [8] = assay: Cyclodextrin and Reichardt's dye coated towel exposed to E. coli
Procedure: A SCOTT® paper towel was first coated with hydroxypropyl-beta-cyclodextrin (from Cerestar International, Hammond, Ind., USA) in solution in water (1 gram in 20 milliliters) by dipping and air-drying at ambient temperature. After drying, the coated paper towel was treated with a solution of Reichardt's dye in isopropanol (1 weight percent) and allowed to air-dry. The dried towel was a purple/blue in color. The present inventors believe that the cyclodextrin hindered the crystallization of the dye, thus allowing a more vivid color of the dye to occur on the paper towel. This coated towel was used in a test with gram-negative bacteria (E. coli) and found to turn colorless in less than 5 seconds when an aliquot of 100 microliters of media containing 10,000 CFU per milliliter was applied to the towel. […] The inventors believe that by careful use of a coating (e.g. cyclodextrin), a monolayer coating of the dye may be formed.

E. coli [9] = assay: Reichardt's dye and TMB coated towel exposed to E. coli suspension; details: towel coated with Reichardt's dye and TMB
[10] = Longest wavelength peak absorption of dyes in three solvents (UV-Visible); format: physicochemical
Source text: Reichardt's dye was used without further purification. […] Acetone, methanol, and acetonitrile solvents (HPLC grade) were obtained from Sigma-Aldrich Chemical Co., Inc. A Shimadzu UV-1601 UV-Visible Spectrophotometer (Shimadzu Corporation) was used to measure the longest wavelength peak absorption of the dyes in the range of 400 to 800 nanometers, dissolved in three different solvents, contained in quartz curvettes. The following table contains the results of the testing with the solvents on the left side and dyes across the top.

Polio virus type 1 = details: virus diluted serially in media; 50 microliters, 3 minutes
Influenza A = assay: Virus detection on Reichardt's dye-coated stickers; details: undiluted virus, 50 microliters, 3 minutes
vaccinia = details: undiluted virus, 50 microliters, 3 minutes
measles = assay: Virus detection on Reichardt's dye-coated stickers; details: undiluted virus, 50 microliters, 3 minutes
[11] = Acid-base reversibility of dye color on towel
C. albicans = assay: Titration of microorganisms with Reichardt's dye on cellulosic towel; details: yeast, 10^7 CFU/mL, 100 microliters
A. niger = assay: as above; details: mold, 10^5
[12] = Color change of dye with bacterial cell-wall compounds on paper towel; details: both experimental set-ups; 160 mg/10 mL acetonitrile

## [O-]c1c(-c2ccccc2)cc(-[n+]2c(-c3ccccc3)cc(-c3ccccc3)cc2-c2ccccc2)cc1-c1ccccc1 [Reichardt's dye, 4-(2,4,6-triphenylpyridinium-1-yl)-2,6-diphenylphenolate]
S. aureus [1]
  Color change of glove piece and glove finger: immediately changed
[2]
  Color change at contaminated area of doorknob: blue to colorless
S. aureus [3]; 10 microliter drops, 40 mg/10 mL acetonitrile, on S. aureus spots
  Time for dye solution to change color: less than 1 second
S. aureus [3]; drops added until color remained steady
  Correlation of titration with level of bacterial contamination: good correlation
[4]; 4 mg/ml dye solution in acetonitrile
  Volume of dye solution required for the dye color to remain steady: 120 µL
[4]; 16 mg/ml dye solution in acetonitrile
  Volume of dye solution required for the dye color to remain steady: 30 µL
E. coli [5]
  Amount of Dye Required for Persistent Color: 80 µL
[6]
  Color change on hot plate surface: only the side containing the aged chicken juice (and thus bacteria) changed color
[7]
  Time to color change: 20 to 30 s
E. coli [8]; 100 microliters of media containing 10,000 CFU per milliliter
  Time to turn colorless: less than 5 seconds
E. coli [8]; 500 CFU per milliliter
  Time to color change: ≤ 15 s
E. coli [8]; hydroxypropyl-beta-cyclodextrin coated towel
  Bacteria concentration down to which color change occurred: 500 CFU per milliliter
E. coli [9]
  Time to change color to a white spot: less than 10 seconds
[10]; Acetone
  Color in solvent: (Bluish-green)
  Longest wavelength peak absorption: 674 nm
[10]; Acetonitrile
  Color in solvent: (Blue)
  Longest wavelength peak absorption: 623 nm
[10]; Methanol
  Color in solvent: (red)
  Longest wavelength peak absorption: 509 nm
Polio virus type 1
  Ten-fold dilution down to which stickers changed color: 10^−6
Influenza A
  De-colorization of sticker: less than that observed for the other viruses
vaccinia
  De-colorization of sticker: less than that observed for the other viruses
measles
  De-colorization of sticker: less than that observed for the other viruses
Rhinovirus; 100 microliters undiluted virus, 80 mg/10 mL acetonitrile with or without TWEEN 80
  Dye added until the color persisted: approximately 9 drops
Rhinovirus; surfactant- and non-surfactant-containing solutions
  Discharge of dye color on virus spot: rapidly discharged
[11]; after acetic acid or pH 2.0 buffer
  Effect of 1 N NaOH on the changed spots: rapid re-colorization
[11]; dried dye spots on towel
  Color change with acetic acid and pH 2.0 buffer: rapid color change
C. albicans
  Amount of Dye Required for Persistent Color: 70 µL
A. niger
  Amount of Dye Required for Persistent Color: 50 µL
[12]
  Color change of dye with muramic acid: near instantaneous color change

Source: patent publication US7300770B2, “Detection of microbe contamination on elastomeric articles” (Kimberly-Clark Worldwide, Inc., priority 2004, dated 2007)
